By EC50 is commonly meant the midpoint of the concentration-response curve.

The target of the test is T1, HEK cells stably transfected with tetracycline inducible hNR1 and hNR2A (Homo sapiens, UniProt Q05586+Q12879).
T1 construct: expressed in transfected cells; host or cells: HEK cells, stably transfected, tetracycline/doxycycline inducible
T1 sequence (Q12879 23-1464, other chains not shown): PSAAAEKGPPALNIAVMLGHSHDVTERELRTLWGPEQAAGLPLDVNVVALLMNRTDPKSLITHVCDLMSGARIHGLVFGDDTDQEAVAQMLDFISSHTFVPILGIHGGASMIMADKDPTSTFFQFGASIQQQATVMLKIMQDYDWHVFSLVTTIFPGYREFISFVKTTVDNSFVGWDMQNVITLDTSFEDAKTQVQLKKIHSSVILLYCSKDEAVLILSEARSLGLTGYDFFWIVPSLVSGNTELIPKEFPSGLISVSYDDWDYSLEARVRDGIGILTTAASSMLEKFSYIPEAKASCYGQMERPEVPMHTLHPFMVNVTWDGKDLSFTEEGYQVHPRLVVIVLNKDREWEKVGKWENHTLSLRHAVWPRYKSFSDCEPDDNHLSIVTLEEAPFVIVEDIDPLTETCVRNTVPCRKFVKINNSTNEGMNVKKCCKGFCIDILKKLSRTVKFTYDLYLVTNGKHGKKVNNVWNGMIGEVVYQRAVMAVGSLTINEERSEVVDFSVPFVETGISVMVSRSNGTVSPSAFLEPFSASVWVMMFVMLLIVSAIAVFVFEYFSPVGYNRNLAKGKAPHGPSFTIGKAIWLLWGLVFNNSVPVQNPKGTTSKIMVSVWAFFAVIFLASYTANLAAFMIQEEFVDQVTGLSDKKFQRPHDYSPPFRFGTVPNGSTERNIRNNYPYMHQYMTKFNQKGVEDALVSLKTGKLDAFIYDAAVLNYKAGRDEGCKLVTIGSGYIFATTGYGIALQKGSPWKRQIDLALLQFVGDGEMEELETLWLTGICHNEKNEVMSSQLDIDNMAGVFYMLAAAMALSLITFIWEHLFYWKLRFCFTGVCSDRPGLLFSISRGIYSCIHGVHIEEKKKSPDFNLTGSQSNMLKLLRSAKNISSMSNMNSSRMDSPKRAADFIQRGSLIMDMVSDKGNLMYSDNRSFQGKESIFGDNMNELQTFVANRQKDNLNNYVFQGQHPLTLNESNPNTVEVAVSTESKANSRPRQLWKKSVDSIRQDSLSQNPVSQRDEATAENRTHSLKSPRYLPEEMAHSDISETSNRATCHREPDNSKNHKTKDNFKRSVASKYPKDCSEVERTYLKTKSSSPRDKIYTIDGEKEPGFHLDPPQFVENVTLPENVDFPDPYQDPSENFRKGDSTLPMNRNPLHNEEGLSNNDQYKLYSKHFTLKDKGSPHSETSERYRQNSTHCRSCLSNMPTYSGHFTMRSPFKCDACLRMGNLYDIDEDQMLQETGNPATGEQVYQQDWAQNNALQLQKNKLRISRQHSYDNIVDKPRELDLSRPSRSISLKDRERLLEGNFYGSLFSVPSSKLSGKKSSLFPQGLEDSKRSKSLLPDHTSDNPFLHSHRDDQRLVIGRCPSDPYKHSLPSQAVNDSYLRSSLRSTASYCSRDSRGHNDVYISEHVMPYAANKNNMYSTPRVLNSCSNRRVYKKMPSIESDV
Briefly: Assay 1: Cell-Based Assay, cytosolic calcium response to positive allosteric modulators (with 30 μM glycine and 300 nM L-glutamate, EC30). As to conditions: Table 3; cytosolic calcium response, with 30 μM glycine and 300 nM L-glutamate (EC30); — = no plateau was reached. In short, it runs like this:
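Cells induced 24 h with 7.5 μg mL^−1 doxycycline plus 500 μM (+)-ketamine, loaded 60 min at 37 °C with calcium dye in Mg-free HBSS (1.8 mM Ca, probenecid, 10 μM (+)-ketamine, pH 7.15). Peak RFU over 5 min after compound addition, scaled to 100 μM L-glutamate (100%) and 0 μM (0%); four-parameter Hill fit for EC50, max % if no plateau.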
Turning to `CCNC(=O)c1c(C)sc2nc(CN(CC)c3ccc(Cl)cn3)cc(=O)n12` [compound 152, 7-[[(5-chloro-2-pyridyl)-ethyl-amino]methyl]-N-ethyl-2-methyl-5-oxo-thiazolo[3,2-a]pyrimidine-3-carboxamide], the EC50 was determined as 2850 nM. `Cc1sc2nc(Cn3nncc3C3CC3)cc(=O)n2c1C1CC1CO` (stereo not shown) [compound 153, 7-[(5-Cyclopropyltriazol-1-yl)methyl]-3-[2-(hydroxymethyl)cyclopropyl]-2-methyl-thiazolo[3,2-a]pyrimidin-5-one]: the EC50 is 73500 nM. For `CCNC(=O)c1c(OCC)sc2nc(Cc3cccc(C(F)(F)F)c3F)cc(=O)n12` [compound 156, 2-ethoxy-N-ethyl-7-[[2-fluoro-3-(trifluoromethyl)phenyl]methyl]-5-oxo-thiazolo[3,2-a]pyrimidine-3-carboxamide] the value was 1470 nM; for `Cc1sc2nc(Cn3nc(C(F)(F)F)cc3Cl)cc(=O)n2c1-c1cccnc1F` [compound 157, 7-[[5-chloro-3-(trifluoromethyl)pyrazol-1-yl]methyl]-3-(2-fluoro-3-pyridyl)-2-methyl-thiazolo[3,2-a]pyrimidin-5-one], 13000 nM; for `Cc1sc2nc(Cn3nc(C(F)(F)F)cc3Cl)cc(=O)n2c1-c1ncco1` [compound 158, 7-[[5-chloro-3-(trifluoromethyl)pyrazol-1-yl]methyl]-2-methyl-3-oxazol-2-yl-thiazolo[3,2-a]pyrimidin-5-one], 1420 nM.

Consider `Cc1sc2nc(Cn3nc(Cl)cc3C(F)(F)F)cc(=O)n2c1-c1ncco1` [compound 159, 7-[[3-chloro-5-(trifluoromethyl)pyrazol-1-yl]methyl]-2-methyl-3-oxazol-2-yl-thiazolo[3,2-a]pyrimidin-5-one], for which the EC50 amounted to 7590 nM.

`Cc1sc2nc(Cn3nc(C(F)(F)F)cc3Cl)cc(=O)n2c1C(F)(F)F` [compound 160, 7-[[5-chloro-3-(trifluoromethyl)pyrazol-1-yl]methyl]-2-methyl-3-(trifluoromethyl)thiazolo[3,2-a]pyrimidin-5-one]: the EC50 turned out to be 753 nM.

In the case of `Cc1sc2nc(Cn3nc(Cl)cc3C(F)(F)F)cc(=O)n2c1C(F)(F)F` [compound 161, 7-[[3-chloro-5-(trifluoromethyl)pyrazol-1-yl]methyl]-2-methyl-3-(trifluoromethyl)thiazolo[3,2-a]pyrimidin-5-one], the EC50 was found to be 1490 nM. For `N#CC1CC1c1c(C(F)(F)F)sc2nc(Cc3cccc(C(F)(F)F)c3F)cc(=O)n12` (stereo not shown) [compound 162, 2-[7-[[2-fluoro-3-(trifluoromethyl)phenyl]methyl]-5-oxo-2-(trifluoromethyl)thiazolo[3,2-a]pyrimidin-3-yl]cyclopropanecarbonitrile] the value was 199 nM; for `Cc1sc2nc(CN(C)c3ccc(Cl)cn3)cc(=O)n2c1C1CC1CO` (stereo not shown) [compound 163, 7-[[(5-chloro-2-pyridyl)-methyl-amino]methyl]-3-[2-(hydroxymethyl)cyclopropyl]-2-methyl-thiazolo[3,2-a]pyrimidin-5-one], 359 nM. `CCNC(=O)c1c(C)sc2nc(Cn3nc(Cl)cc3Cl)cc(=O)n12` [compound 164, 7-[(3,5-dichloropyrazol-1-yl)methyl]-N-ethyl-2-methyl-5-oxo-thiazolo[3,2-a]pyrimidine-3-carboxamide]: the EC50 was 562 nM.

For the molecule `CCNC(=O)c1c(OCC(F)(F)F)sc2nc(Cc3cccc(C(F)(F)F)c3F)cc(=O)n12` [compound 165, N-ethyl-7-[[2-fluoro-3-(trifluoromethyl)phenyl]methyl]-5-oxo-2-(2,2,2-trifluoroethoxy)thiazolo[3,2-a]pyrimidine-3-carboxamide], the EC50 was 1370 nM. Under `CC(=O)c1c(C(F)(F)F)sc2nc(Cn3nc(C(F)(F)F)cc3Cl)cc(=O)n12` [compound 166, 3-acetyl-7-[[5-chloro-3-(trifluoromethyl)pyrazol-1-yl]methyl]-2-(trifluoromethyl)thiazolo[3,2-a]pyrimidin-5-one] stands 2690 nM. Under `CC(=O)c1c(C(F)(F)F)sc2nc(Cn3nc(Cl)cc3C(F)(F)F)cc(=O)n12` [compound 167, 3-acetyl-7-[[3-chloro-5-(trifluoromethyl)pyrazol-1-yl]methyl]-2-(trifluoromethyl)thiazolo[3,2-a]pyrimidin-5-one] stands 5260 nM.

For the molecule `C=C(C)c1c(C(F)(F)F)sc2nc(Cn3nc(C(F)(F)F)cc3Cl)cc(=O)n12` [compound 169, 7-[[5-chloro-3-(trifluoromethyl)pyrazol-1-yl]methyl]-3-isopropenyl-2-(trifluoromethyl)thiazolo[3,2-a]pyrimidin-5-one], the EC50 was determined as 7460 nM. Regarding `Cc1sc2nc(Cn3nc(C(F)(F)F)cc3Cl)cc(=O)n2c1-c1ncc[nH]1` [compound 170, 7-[[5-chloro-3-(trifluoromethyl)pyrazol-1-yl]methyl]-3-(1H-imidazol-2-yl)-2-methyl-thiazolo[3,2-a]pyrimidin-5-one], the EC50 amounted to 814 nM. Regarding `O=c1cc(Cn2nc(C(F)(F)F)cc2Cl)nc2sc(C(F)(F)F)c(-c3cncnc3)n12` [compound 171, 7-[[5-chloro-3-(trifluoromethyl)pyrazol-1-yl]methyl]-3-pyrimidin-5-yl-2-(trifluoromethyl)thiazolo[3,2-a]pyrimidin-5-one], the EC50 turned out to be 1210 nM. For `O=c1cc(Cn2nc(Cl)cc2C(F)(F)F)nc2sc(C(F)(F)F)c(-c3cncnc3)n12` [compound 172, 7-[[3-chloro-5-(trifluoromethyl)pyrazol-1-yl]methyl]-3-pyrimidin-5-yl-2-(trifluoromethyl)thiazolo[3,2-a]pyrimidin-5-one] the value was 27600 nM; for `O=c1cc(Cn2nc(Cl)cc2C(F)(F)F)nc2sc(C(F)(F)F)c(-c3cccnc3)n12` [compound 173, 7-[[3-chloro-5-(trifluoromethyl)pyrazol-1-yl]methyl]-3-(3-pyridyl)-2-(trifluoromethyl)thiazolo[3,2-a]pyrimidin-5-one], 24700 nM; for `CCNC(=O)c1c(OCC(F)(F)F)sc2nc(Cn3nc(C(F)(F)F)cc3Cl)cc(=O)n12` [compound 174, 7-[[5-chloro-3-(trifluoromethyl)pyrazol-1-yl]methyl]-N-ethyl-5-oxo-2-(2,2,2-trifluoroethoxy)thiazolo[3,2-a]pyrimidine-3-carboxamide], 1670 nM. For `CCNC(=O)c1c(OCC)sc2nc(Cn3nc(C(F)(F)F)cc3Cl)cc(=O)n12` [compound 175, 7-[[5-chloro-3-(trifluoromethyl)pyrazol-1-yl]methyl]-2-ethoxy-N-ethyl-5-oxo-thiazolo[3,2-a]pyrimidine-3-carboxamide] the value was 864 nM; for `CCNC(=O)c1c(OCC)sc2nc(Cn3nc(Cl)cc3C(F)(F)F)cc(=O)n12` [compound 176, 7-[[3-chloro-5-(trifluoromethyl)pyrazol-1-yl]methyl]-2-ethoxy-N-ethyl-5-oxo-thiazolo[3,2-a]pyrimidine-3-carboxamide], 8920 nM; for `Cc1sc2nc(Cn3nc(C(F)(F)F)cc3Cl)cc(=O)n2c1C(=O)C(C)C` [compound 177, 7-[[5-chloro-3-(trifluoromethyl)pyrazol-1-yl]methyl]-2-methyl-3-(2-methylpropanoyl)thiazolo[3,2-a]pyrimidin-5-one], 123 nM. Under `Cc1sc2nc(Cn3nc(Cl)cc3C(F)(F)F)cc(=O)n2c1C(=O)C(C)C` [compound 178, 7-[[3-chloro-5-(trifluoromethyl)pyrazol-1-yl]methyl]-2-methyl-3-(2-methylpropanoyl)thiazolo[3,2-a]pyrimidin-5-one] stands 354 nM; under `CC[C@@H](C)NC(=O)c1c(C)sc2nc(Cc3cccc(C(F)(F)F)c3F)cc(=O)n12` [compound 179, 7-[[2-fluoro-3-(trifluoromethyl)phenyl]methyl]-2-methyl-N-[(1R)-1-methylpropyl]-5-oxo-thiazolo[3,2-a]pyrimidine-3-carboxamide], 698 nM; under `CC[C@H](C)NC(=O)c1c(C)sc2nc(Cc3cccc(C(F)(F)F)c3F)cc(=O)n12` [compound 180, 7-[[2-fluoro-3-(trifluoromethyl)phenyl]methyl]-2-methyl-N-[(1S)-1-methylpropyl]-5-oxo-thiazolo[3,2-a]pyrimidine-3-carboxamide], 2940 nM. As to `Cc1sc2nc(CN(C)c3ccc(F)cn3)cc(=O)n2c1C1CC1CO` (stereo not shown) [compound 182, 7-[[(5-fluoro-2-pyridyl)-methyl-amino]methyl]-3-[2-(hydroxymethyl)cyclopropyl]-2-methyl-thiazolo[3,2-a]pyrimidin-5-one], the EC50 came to 175 nM. With `COCc1c(C)sc2nc(Cn3nc(C(F)(F)F)cc3Cl)cc(=O)n12` [compound 183, 7-[[5-chloro-3-(trifluoromethyl)pyrazol-1-yl]methyl]-3-(methoxymethyl)-2-methyl-thiazolo[3,2-a]pyrimidin-5-one], the EC50 came to 5290 nM. With `O=c1cc(Cn2nc(C(F)(F)F)cc2Cl)nc2sc(C(F)(F)F)c(C3CC3)n12` [compound 184, 7-[[5-chloro-3-(trifluoromethyl)pyrazol-1-yl]methyl]-3-cyclopropyl-2-(trifluoromethyl)thiazolo[3,2-a]pyrimidin-5-one], the EC50 was found to be 9990 nM. Under `Cc1sc2nc(Cn3nc(C(F)(F)F)cc3Cl)cc(=O)n2c1CS(C)(=O)=O` [compound 185, 7-[[5-chloro-3-(trifluoromethyl)pyrazol-1-yl]methyl]-2-methyl-3-(methylsulfonylmethyl)thiazolo[3,2-a]pyrimidin-5-one] stands 17800 nM; under `Cc1sc2nc(Cn3nc(C(F)(F)F)cc3Cl)cc(=O)n2c1Cn1cccn1` [compound 186, 7-[[5-chloro-3-(trifluoromethyl)pyrazol-1-yl]methyl]-2-methyl-3-(pyrazol-1-ylmethyl)thiazolo[3,2-a]pyrimidin-5-one], 3850 nM.
